Experiment: xn = mol fraction of the nth substance listed
Details: 103 kPa, Liquid, Vibrating tube method

CO[Si](C)(C)OC [dimethoxydimethylsilane] + CO[Si](C)(OC)c1ccccc1
mass density [kg/m3]
Details | 298.15 K | 303.15 K | 308.15 K | 313.15 K | 318.15 K
x2 = 0 | 857.9 | 852.05 | 846.16 | 840.22 | 834.24
x2 = 0.0501 | 867.91 | 862.2 | 856.41 | 850.61 | 844.75
x2 = 0.1001 | 877.51 | 871.89 | 866.22 | 860.51 | 854.76
x2 = 0.15 | 886.69 | 881.2 | 875.64 | 870.06 | 864.46
x2 = 0.2 | 895.55 | 890.16 | 884.71 | 879.29 | 873.78
x2 = 0.25 | 904.02 | 898.68 | 893.28 | 887.86 | 882.41
x2 = 0.2999 | 912.17 | 906.9 | 901.56 | 896.2 | 890.82
x2 = 0.3499 | 920.17 | 914.94 | 909.7 | 904.52 | 899.24
x2 = 0.4001 | 927.65 | 922.49 | 917.31 | 912.1 | 906.86
x2 = 0.4501 | 934.96 | 929.92 | 924.83 | 919.75 | 914.64
x2 = 0.5001 | 942 | 936.98 | 931.93 | 926.87 | 921.78
x2 = 0.55 | 948.79 | 943.85 | 938.85 | 933.86 | 928.85
x2 = 0.6 | 955.36 | 950.46 | 945.52 | 940.57 | 935.6
x2 = 0.6499 | 961.69 | 956.82 | 951.89 | 946.97 | 942.03
x2 = 0.6999 | 967.83 | 962.98 | 958.11 | 953.22 | 948.33
x2 = 0.75 | 973.78 | 968.97 | 964.15 | 959.31 | 954.48
x2 = 0.7997 | 979.5 | 974.72 | 969.93 | 965.13 | 960.32
x2 = 0.8499 | 985.08 | 980.34 | 975.58 | 970.81 | 966.02
x2 = 0.8999 | 990.48 | 985.77 | 981.05 | 976.33 | 971.59
x2 = 0.95 | 995.72 | 991.04 | 986.35 | 981.66 | 976.95

C=C[Si](C)(OCC)OCC [methylvinyldiethoxysilane] + CO[Si](C)(OC)c1ccccc1
mass density [kg/m3]
Details | 298.15 K | 303.15 K | 308.15 K | 313.15 K | 318.15 K
x2 = 0 | 856.25 | 851.09 | 845.89 | 840.71 | 835.44
x2 = 0.05 | 863.72 | 858.61 | 853.46 | 848.28 | 843.09
x2 = 0.1001 | 871.17 | 866.08 | 860.96 | 855.82 | 850.66
x2 = 0.1499 | 878.58 | 873.53 | 868.43 | 863.33 | 858.2
x2 = 0.2001 | 885.98 | 880.95 | 875.9 | 870.83 | 865.74
x2 = 0.2501 | 893.45 | 888.45 | 883.43 | 878.38 | 873.33
x2 = 0.3 | 900.68 | 895.69 | 890.69 | 885.67 | 880.64
x2 = 0.3499 | 907.99 | 903.05 | 898.08 | 893.09 | 888.08
x2 = 0.4 | 915.28 | 910.36 | 905.41 | 900.45 | 895.47
x2 = 0.4501 | 922.58 | 917.68 | 912.77 | 907.84 | 902.89
x2 = 0.5 | 929.75 | 924.84 | 919.93 | 915 | 910.05
x2 = 0.5499 | 937 | 932.14 | 927.28 | 922.39 | 917.49
x2 = 0.6 | 944.21 | 939.4 | 934.57 | 929.72 | 924.87
x2 = 0.65 | 951.55 | 946.75 | 941.94 | 937.11 | 932.27
x2 = 0.6999 | 958.48 | 953.71 | 948.92 | 944.12 | 939.31
x2 = 0.75 | 965.63 | 960.89 | 956.12 | 951.35 | 946.57
x2 = 0.7999 | 972.72 | 968 | 963.25 | 958.51 | 953.74
x2 = 0.85 | 979.76 | 975.05 | 970.33 | 965.59 | 960.85
x2 = 0.8998 | 987.03 | 982.34 | 977.65 | 972.94 | 968.23
x2 = 0.9499 | 993.78 | 989.11 | 984.43 | 979.74 | 975.03

C=C[Si](OC)(OC)OC [trimethoxy(vinyl)silane] + CO[Si](C)(OC)c1ccccc1
mass density [kg/m3]
Details | 298.15 K | 303.15 K | 308.15 K | 313.15 K | 318.15 K
x2 = 0 | 965.69 | 960.02 | 954.26 | 948.47 | 942.63
x2 = 0.05 | 968.08 | 962.41 | 956.71 | 950.99 | 945.24
x2 = 0.1 | 970.32 | 964.72 | 959.1 | 953.45 | 947.77
x2 = 0.1499 | 972.48 | 966.94 | 961.39 | 955.8 | 950.2
x2 = 0.2 | 974.57 | 969.11 | 963.63 | 958.1 | 952.57
x2 = 0.2501 | 976.61 | 971.22 | 965.8 | 960.36 | 954.9
x2 = 0.2999 | 978.59 | 973.25 | 967.91 | 962.52 | 957.14
x2 = 0.35 | 980.49 | 975.22 | 969.93 | 964.61 | 959.27
x2 = 0.4001 | 982.35 | 977.14 | 971.9 | 966.65 | 961.37
x2 = 0.4501 | 984.15 | 978.99 | 973.81 | 968.61 | 963.4
x2 = 0.5 | 985.89 | 980.79 | 975.67 | 970.52 | 965.37
x2 = 0.5499 | 987.58 | 982.53 | 977.46 | 972.37 | 967.27
x2 = 0.6 | 989.22 | 984.22 | 979.2 | 974.17 | 969.12
x2 = 0.6499 | 990.82 | 985.86 | 980.89 | 975.91 | 970.93
x2 = 0.7 | 992.37 | 987.46 | 982.54 | 977.6 | 972.65
x2 = 0.75 | 993.89 | 989.02 | 984.15 | 979.26 | 974.36
x2 = 0.8001 | 995.35 | 990.53 | 985.7 | 980.86 | 976.01
x2 = 0.8498 | 996.76 | 991.99 | 987.21 | 982.41 | 977.61
x2 = 0.8999 | 998.15 | 993.42 | 988.68 | 983.93 | 979.18
x2 = 0.9499 | 999.49 | 994.81 | 990.11 | 985.41 | 980.69

CCO[Si](C)(C)OCC [dimethyldiethoxysilane] + CO[Si](C)(OC)c1ccccc1
mass density [kg/m3]
Details | 298.15 K | 303.15 K | 308.15 K | 313.15 K | 318.15 K
x2 = 0 | 835.43 | 830.05 | 824.66 | 819.23 | 813.79
x2 = 0.05 | 844.52 | 839.2 | 833.85 | 828.47 | 823.07
x2 = 0.1001 | 853.53 | 848.24 | 842.96 | 837.62 | 832.3
x2 = 0.1499 | 862.39 | 857.16 | 851.93 | 846.65 | 841.38
x2 = 0.2002 | 871.25 | 866.06 | 860.86 | 855.62 | 850.38
x2 = 0.2501 | 879.99 | 874.82 | 869.69 | 864.51 | 859.35
x2 = 0.3001 | 888.58 | 883.47 | 878.37 | 873.21 | 868.08
x2 = 0.3499 | 897.15 | 892.09 | 887.07 | 881.99 | 876.96
x2 = 0.4 | 905.59 | 900.56 | 895.53 | 890.45 | 885.39
x2 = 0.4499 | 914.02 | 909.03 | 904.09 | 899.09 | 894.16
x2 = 0.5 | 922.3 | 917.36 | 912.44 | 907.47 | 902.55
x2 = 0.55 | 930.51 | 925.59 | 920.71 | 915.78 | 910.89
x2 = 0.5999 | 938.58 | 933.7 | 928.83 | 923.93 | 919.05
x2 = 0.65 | 946.66 | 941.82 | 936.99 | 932.13 | 927.3
x2 = 0.6999 | 954.61 | 949.79 | 944.98 | 940.14 | 935.33
x2 = 0.75 | 962.69 | 957.72 | 952.94 | 948.14 | 943.35
x2 = 0.8 | 970.29 | 965.52 | 960.76 | 955.98 | 951.2
x2 = 0.8498 | 978.01 | 973.29 | 968.57 | 963.83 | 959.11
x2 = 0.9 | 985.69 | 980.99 | 976.3 | 971.58 | 966.88
x2 = 0.95 | 993.25 | 988.58 | 983.91 | 979.23 | 974.53

— the NIST ThermoML archive (doi:10.1016/j.jct.2016.10.033)
